These results are taken from a melting point compilation (Tetko et al.; mined from patent text by program, amines drawn as free bases though some values may be those of a salt).

Compound `O=C(CCCl)N(O)c1ccccc1` showed a melting point of 87 to 88 °C. Then `COc1ccc(C(=O)COC(=O)NC(C)C)cc1`, with 121 to 122 °C; and `Nc1nn(Cc2ccccc2)c2nc(N3CCOCC3)cc(-c3ccccc3)c12`, with 147 to 150 °C; and `Cn1c(C(F)(F)F)cc(=O)n(-c2cc(OC(=O)C3CCCCC3)c(Cl)cc2F)c1=O`, with 97 to 101 °C. Regarding `O=[N+]([O-])C=C1C[N+]([O-])=C(c2ccccc2F)c2cc([N+](=O)[O-])ccc2N1`, the melting point was 216 to 220 °C. For `Cc1ccc(Cn2nnc(C(N)=O)c2N)cc1`, the melting point is 223 to 225 °C. Take `COc1ccc(C(=O)NCCSSCCNC(=O)c2ccc(OC)cc2)cc1`: the melting point lay in the range of 136 to 138 °C.

With `COC(=O)c1cc(C(=O)CBr)c(OC(C)=O)cc1NC(=O)C(F)(F)F`, the melting point is 260 to 261 °C. Turning to `O=S(=O)(C1CC1)C(F)(F)C(O)(Cn1cncn1)c1ccc(F)cc1` (single isomer, unassigned; (+)), the melting point fell in the range of 144 to 145 °C.

The compound `CCc1c(-c2ccc(CO)cc2)c2cc(C(C)=O)c3cccc1n32` showed a melting point of 73 to 77 °C. Compound `COc1ccc(C(F)(F)F)cc1C(=O)c1ccc(C#N)cc1` registered a melting point of 88 °C. As for `CCOC(=O)CC(Cc1ccccc1)NC(=O)c1ccc(OC)cc1` (configuration not stated), the figure is 102 to 104 °C; as for `COc1cc(O)c(C(=O)C=Cc2ccc(OC(C)=O)cc2)c(OC)c1`, 142 °C. In turn, `O=C(O)C(CCc1ccccc1)CC(CCc1ccccc1)C(=O)O` (configuration not stated) registered a melting point of 95 to 105 °C.

As to `Cc1cccc(N2CCOC2=O)c1COc1cccn2c(CO)c(C)nc12`, the melting point was 190 to 193 °C. On to `COc1ccc(C(=O)c2ccc(OCc3ccccc3)nc2)c(OC(C)(C)C(=O)OC(C)(C)C)c1`, for which the melting point fell in the range of 58 to 60 °C.

`Oc1c(-c2cccnc2)cccc1-c1cccnc1` displayed a melting point of 211 °C. In the case of `CCOC(=O)CN(CP(=O)(ONC1CCCCC1)ONC1CCCCC1)C(=O)C(F)(F)F`, the melting point lay within 118 to 123 °C.

Regarding `Cc1ccc(S(=O)(=O)N2CCCC2c2ccco2)cc1` (racemic), the melting point came to 58 °C.

The compound `CNCCNc1noc2cc(OC)ccc12` returned a melting point of 136 to 137 °C. As to `COc1ccc(CCN(C)CCC2CN(C)C(=S)c3cccnc3O2)cc1` (configuration not stated), the melting point was 75 to 78 °C. For `N#CCCOc1ccc(F)cc1`, the melting point is 84 to 85 °C.

`O=C1CC(CO)N1Cc1ccccc1` (configuration not stated) returned a melting point of 94 °C. `CCCCCCCCNC(=O)n1nc(Oc2ncc(C(F)(F)F)cc2Cl)c(Cl)c1C`: the melting point fell in the range of 61 to 62 °C. The compound `CCOC(=O)CC(O)c1ccc(-c2ccc([N+](=O)[O-])cc2)o1` (configuration not stated) returned a melting point of 79 to 81 °C. `CC(C)c1nn(-c2ccc(Cl)cn2)cc1C=O` yielded a melting point of 69 to 70 °C. As to `CC1(C)Oc2ccc(C(N)=O)cc2C(c2cccn(Cc3ccccc3)c2=O)C1O` (configuration not stated), the melting point lay within 230 to 235 °C. In the case of `COc1ccc2c(c1)c1c(n2-c2ccccc2)C(=O)CO1`, the melting point amounted to 175 °C. On to `CCCNC(=S)Nc1nc2ccc(OC(F)(F)F)cc2s1`, for which the melting point was in the range of 226 to 228 °C. As for `CCCCCCCCCC(O)CCc1ccc(O)c(OC)c1` (configuration not stated), the melting point is 66 to 68 °C.

Compound `O=C(Nc1ccc2[nH]c(=O)oc2c1)C(=O)N1CCC(Cc2ccc(F)c(F)c2)CC1` returned a melting point of 233 °C. In turn, `Cc1ccccc1C=C1CCn2c1nc1ccc(CO)cc1c2=O` gave a melting point of 222 to 224 °C. For `O=C(CC(F)(F)F)Nc1c(C(=O)c2ccccc2)[nH]c2cc(Cl)ccc12`, the melting point was 201 to 204 °C. Then `CC1(C)CCC(Br)(C(Br)c2ccc(Cl)cc2)C(=O)C1` (configuration not stated), with 114 to 115 °C; and `CCCn1ccc2c(c1=O)C(c1ccccc1)C(C(=O)OCC)=C(C)N2` (configuration not stated), with 215 to 217 °C. Then `COc1ccc(C2(C#N)CCC(=O)C(C(N)=O)C2)cc1OCCl` (configuration not stated), with 154 to 155 °C; and `COc1cc(C=CC(=O)c2ccc(N(C)C)cc2)cc(OC)c1`, with 155 to 156 °C. Then `COc1ccc(C2=NCc3nnc(CN(C)C)n3-c3ccc(Cl)cc32)cc1`, with 224 to 225 °C. `CC(C)N1CC2(COc3ccc([N+](=O)[O-])cc3OC2)OC1c1ccccc1` (configuration not stated) gave a melting point of 151 to 152 °C. Take `Clc1ccccc1Oc1ccnc2c(Cl)cccc12`: the melting point is 56 to 58 °C. For the compound `COC(=O)Nc1ccc(NC(=O)CBr)c([N+](=O)[O-])c1`, the melting point lay in the range of 160 to 162 °C. Then `O=C1C[C@@H](NC(=O)OCc2ccccc2)C(=O)N1`, with 117 to 118 °C. `Cc1c(Cc2cc(Cl)cc(Cl)c2)c(C(C)C)nn1CCO` registered a melting point of 77 to 78 °C.

`CC(C(=O)O)c1ccc(C2CCCCC2)c2ccccc12` (configuration not stated): the melting point turned out to be 150 °C. For `Cc1nc2cnccc2n1-c1ccc(C2=Nc3ccccc3NC(=O)C2)cn1`, the melting point was 208 to 210 °C. As for `COc1ccc2[nH]c3ccccc3c2c1`, the figure is 148 to 150 °C; as for `O=C(Cc1ccn(-c2ccc(F)cc2)c1)N1C(=O)OC[C@@H]1Cc1ccccc1`, 106 to 108 °C; as for `NNC(=O)c1ncccn1`, 173 to 175 °C. `CCCCCCCCC/C=C(\C)C(=O)O` displayed a melting point of 28 to 31 °C. Compound `CC(C)c1cccc(C(C)C)c1NC(=O)CS(=O)(=O)CCN1CCN(c2ccccc2)CC1` came in with a melting point of 197 to 200 °C. Compound `COc1cccc(-c2nc3ccc(OC(F)(F)F)cc3[nH]2)c1` registered a melting point of 192 to 194 °C. The compound `CC(=O)NC(C)CCC1CCC(n2cc3ccc(OCC4CC4)cc3n2)CC1` (configuration not stated) gave a melting point of 139 to 140 °C.

For `O=C(NCc1ccc(Cl)cc1)c1cnc2ccc(CC3CCOCC3)cc2c1O`, the melting point lay in the range of 184 to 185 °C. With `COc1ccc(COc2c(C)c(C)c3c(c2C)CC2(CCN(Cc4ccccc4)CC2)O3)cc1`, the melting point lay in the range of 85 to 86 °C. Consider `COc1ccc(CCNC(=O)C(=O)NCc2ccc([N+](=O)[O-])cc2)cc1OC1CCCC1`, for which the melting point was 148 to 150 °C. Then `Cc1ccc(Cl)c(Nc2ccccc2C(=O)CS(C)=O)c1Cl` (configuration not stated), with 152 to 154 °C. The compound `CC(=O)N(C1=C(Cl)C(=O)c2c(cnn2C)C1=O)C1CC1` showed a melting point of 171 °C. `COC(=O)C1CC(O)C(=O)N1` (configuration not stated) showed a melting point of 85 to 86 °C. The compound `Cc1cc(C(O)(C(F)(F)F)C(F)(F)F)cc(C)c1OCCNCc1ccccc1` gave a melting point of 117 to 120 °C. For `CS(=O)(=O)CC(=O)c1ccc(Cl)cc1`, the melting point was 132 to 137 °C.

In the case of `COc1ccc(N2CCN(c3c(C)c(C)c4c(c3C)CC(C)(C)O4)CC2)c(OC)c1`, the melting point was in the range of 154 to 156 °C. With `Cc1c(-c2ccc(F)cc2)oc2c(-c3ccc(F)cc3)c(-c3ccc(S(C)(=O)=O)cc3)nn12`, the melting point lay within 257 to 259 °C. Then `CCOC(=O)c1cn[nH]c1C(=O)CC(C)C`, with 105 to 107 °C; and `Cc1cc(C)cc(C(=O)c2ccc(O)c(CC(=O)O)c2)c1`, with 242 °C. Turning to `CCN(CC)C(=O)NC1CC2c3cccc4[nH]c(CC#CO)c(c34)CC2N(C)C1` (configuration not stated), the melting point was 151 to 154 °C. Then `CS(=O)(=O)OC1CCc2c(sc(N)c2C(=O)c2ccc(Cl)cc2)C1` (configuration not stated), with 73 to 75 °C.

Consider `CCC(NC(=S)Nc1nc(C)cs1)C(C)C` (configuration not stated), for which the melting point was in the range of 164 to 166 °C. On to `CN1C(=O)CC(c2ccc(O)cc2)C1C(O)c1ccc(-c2ccccc2)s1` (configuration not stated), for which the melting point lay within 248 to 249 °C. The compound `N#Cc1cc(F)cc(-c2ccc3c(c2)C(C2CC2)(C2CC2)OC(=O)N3)c1` gave a melting point of 250 to 252 °C. `Cc1ccccc1C=CCN1CCc2nc(N)sc2CC1` had a melting point of 112 to 115 °C. The compound `CC(=O)Oc1c(Cl)c(C(C)(C)C)oc(=O)c1-c1c(C)cc(C)cc1C` returned a melting point of 116 to 118 °C. The compound `COc1cc2ncnc(NC3=CC(=O)C(c4ccccc4)=CC3=O)c2cc1OC` had a melting point of 200 to 205 °C. `Cc1c(NC(=O)OC(C)(C)C)cnn1-c1cccnc1` had a melting point of 89 to 91 °C.

Compound `O=C(c1ccccc1)c1ccc(OCCCCBr)cc1` came in with a melting point of 42 to 43 °C.

In turn, `Nc1nccc(Oc2ccc3c(C(=O)Nc4ccc(F)c(C(F)(F)F)c4)cccc3c2)n1` gave a melting point of 205 °C. In the case of `CC(C)(C)OC(=O)NC1CCN(C/C=C\CC(c2ccccc2)c2ccccc2)CC1`, the melting point was 105 to 108 °C. For `On1cc(-c2ccccc2)[nH]c1=S`, the melting point was determined as 196 °C.

`O=C(O)C(=O)CC(=O)c1cccn1Cc1ccccc1Br` displayed a melting point of 176 to 180 °C. Compound `O=C(O)C(Cc1cccc2c1CCCC2)Cc1cccc2c1CCCC2` gave a melting point of 144 to 146 °C. Take `COc1ccc(O)c(Br)c1`: the melting point was 37 to 38 °C. Consider `CN(C)C1CCn2c1nc1cc(NC(=O)c3cc4cc(C(F)(F)F)ccc4n3Cc3cccc(F)c3)cnc12` (single isomer, unassigned; (-)), for which the melting point fell in the range of 203 to 205 °C.

As for `c1ccc(-c2ccon2)cc1`, the melting point is 75 °C. The compound `CC(CCc1ccccc1)Nc1nc(Cl)nc(NS(C)(=O)=O)n1` (configuration not stated) gave a melting point of 143 °C. For `N#Cc1cc(-c2ccc(Cl)cc2)cnc1Cl`, the melting point was 185 to 187 °C. For the compound `C#CCOc1ccc2cnn(C[C@H](C)NC(=O)OCc3ccccc3)c2c1`, the melting point is 104 to 106 °C.

`Brc1ccc2[nH]c3cnc(-c4ccon4)cc3c2c1` gave a melting point of 292 to 293 °C. As for `Cc1ccc(-c2ccc3c(c2)C=C(C(=O)Nc2ccc(CN4CCSCC4)cc2)CC3)cc1`, the figure is 178 to 180 °C.

With `Cc1cc(S(=O)(=O)c2ccccc2)ccc1[N+](=O)[O-]`, the melting point lay in the range of 70 to 71 °C. In turn, `FC(F)(F)c1ccn(-c2cc(-c3ccc4c(c3)OCO4)nc3ccccc23)n1` came in with a melting point of 98 to 100 °C. For `CCS(=O)(=O)Nc1cc(-c2ncnc(C(F)F)c2Cl)c(F)cc1Cl`, the melting point lay within 138 to 139 °C. `COc1cccc2c(C(F)(F)F)cc(C)nc12`: the melting point was in the range of 112 to 113 °C. Turning to `COc1cccc2c(NCc3ccccc3C)cc(C(=O)O)nc12`, the melting point was 276 to 277 °C.
